Where two headings read alike, the source gives them in different places.
Legend:
HCT116 MTAP WT cells = assay: Proliferation inhibition of HCT116 cells in vitro (CellTiter Glo, 6 days); format: cell-based; conditions: Homo sapiens, HCT-116, 144 h, read-out: Cell proliferation inhibition rate HCT116 MTAP WT IC50 (nm)
From the text: (§1) Biological Test Example 2 Proliferation Inhibition of HCT116 and HCT116 MTAP-KO Cells In Vitro
(§2) HCT116 cell line was purchased from the Chinese Academy of Sciences Cell Bank, and the MTAP gene was knocked out by CRISPR/Cas9 technology to obtain HCT116-MTAP-KO cell line.
(§3) McCoy's 5A medium (Gibco, catalog No. 16600082), fetal bovine serum (Gibco, catalog No. 10099141C), penicillin-streptomycin double antibody (Gibco, catalog No. 15140122), pancreatic enzyme (Gibco, catalog No. 25200056), CellTiter Glo assay kit (Promega, catalog No. G7572), 384-well transparent flat-bottomed black walled cell culture plate (Corning, catalog No. 3764), ultra micro sampler (Tecan, catalog No. D300e), Multimode reader (Biotek, catalog No. SynergyHTX)
(§4) • 1. Cell culture: HCT116 and HCT116-MTAP-KO cells were cultured in McCoy'5A medium+10% fetal bovine serum+1% penicillin-streptomycin double antibody; to ensure that they were always in the logarithmic growth phase and the cell viability greater than 95%. • 2. Compound concentration gradient preparation: The compound to be tested was added to a 384-well plate using an ultra micro sampler, starting from 30 μM (HCT116 cells) or 3 μM (HCT116-MTAP-KO cells), and diluted with DMSO at 3 times for a total of 9 concentrations and set up three duplicate wells. • 3. Treatment of cells with compounds: Trypsin-digested HCT116 or HCT116-MTAP-KO cell suspension was added to the 384-well plates spotted with the compounds to be tested at 40 μL per well, i.e., 100 cells per well, and the final concentration of DMSO was 0.4%. The cell culture plate was incubated at 37° C. in a 5% CO2 incubator for 6 days. • 4. Detection: 20 μL of CellTiter Glo reagent was added to each well of the cell culture plate and incubated at room temperature for 30 minutes. A multimode reader was used to detect the luminescence signal at […]. • 5. Data analysis:
(§5) The data was fitted with GraphPad Prism 8.0 software using a four parameter inhibitor-reaction model to obtain the […] (half inhibitory concentration) of the test compounds.
(§6) The first column represents cell proliferation inhibition rate HCT116 MTAP WT IC50 (nm), and the second column represents cell proliferation inhibition rate HCT116-MTAP null IC50 (nm): […]

[1] = test system: HCT116-MTAP-KO (MTAP null) cells; assay: Proliferation inhibition of HCT116 MTAP-KO cells in vitro (CellTiter Glo, 6 days); format: cell-based; conditions: 144 h, read-out: Cell proliferation inhibition rate HCT116-MTAP null IC50 (nm)
From the text: as §1, §2, §3, §4, §5, §6

IC50 (HCT116 MTAP WT cells) [µM] | IC50 ([1]; HCT116-MTAP null) [µM] | SMILES | IC50 [1] [µM]
0.1 to 1 | < 0.1 | Cc1ncc2c(N)nc3cc(F)c(C(=O)N(Cc4cn5cc(C(F)F)ccc5n4)c4c(F)cnn4C)cc3n12 [Example 303] | 
0.1 to 1 | < 0.1 | COCC(C)N(Cc1cn2cc(C(F)(F)F)ccc2n1)C(=O)c1cc2c(cc1F)nc(N)c1c(C)ncn12 (stereo not shown) [Example 285, 4-Amino-7-fluoro-N-(1-methoxypropan-2-yl)-3-methyl-N-((6-(trifluoromethyl)imidazolo[1,2-a]pyridin-2-yl)methyl)imidazo[1,5-a]quinoxalin-8-carboxamide] | 
0.1 to 1 | < 0.1 | Cc1ncc2c(N)nc3cnc(C(=O)N(Cc4cn5cc(C(F)(F)F)ccc5n4)c4c(F)cnn4C)cc3n12 [Example 302] | 
1 to 10 | 0.1 to 1 | CCN(Cc1ccc2c(c1)CCO2)C(=O)c1cc2c(cc1F)nc(N)c1cnc(C)n12 [Example 216] | 
1 to 10 | 0.1 to 1 | Cc1ncn2c1c(N)nc1cc(F)c(C(=O)N(Cc3cn4cc(C(F)(F)F)ccc4n3)C3CCC3O)cc12 (stereo not shown) [Example 280] | 
0.1 to 1 | < 0.1 | Cc1ncc2c(N)nc3cc(F)c(C(=O)N(Cc4cn5cc(C(F)(F)F)ccc5n4)c4c(F)cnn4C)cc3n12 [Example 241, 4-amino-7-fluoro-N-(4-fluoro-2-methyl-pyrazol-3-yl)-1-methyl-N-[[6-(trifluoromethyl)imidazolo [1,2-a]pyridin-2-yl]methyl] imidazolo [1,5-a] quinoxalin-8-carboxamide] | 
1 to 10 | < 0.1 | Cc1ncn2c1c(N)nc1cc(F)c(C(=O)N(Cc3cn4ccccc4n3)CC(C)C)cc12 [Example 277] | 
1 to 10 | < 0.1 | Cc1ncc2c(N)nc3cc(F)c(C(=O)N(c4cnn(C)c4)C4COc5ccccc54)cc3n12 (stereo not shown) [Example 225] | 
1 to 10 | < 0.1 | Cc1nn(C)cc1N(Cc1cc2ccccn2n1)C(=O)c1cc2c(cc1F)nc(N)c1cnc(C)n12 [Example 227] | 
1 to 10 | < 0.1 | Cc1cnn2c1c(N)nc1ccc(C(=O)N(Cc3cn4cc(C(F)(F)F)ccc4n3)CC(C)C)cc12 [Example 290] | 
1 to 10 | < 0.1 | Cc1ncc2c(N)nc3cc(F)c(C(=O)N(Cc4nc5ccc(C(F)(F)F)cc5[nH]4)c4ccnn4C)cc3n12 [Example 245] | 
1 to 10 | < 0.1 | COC1CCCC1N(Cc1cn2ccccc2n1)C(=O)c1cc2c(cc1F)nc(N)c1c(C)ncn12 (stereo not shown) [Example 278] | 
1 to 10 | < 0.1 | Cc1ncc2c(N)nc3cc(F)c(C(=O)N(Cc4cn5ccccc5n4)c4ccnn4C)cc3n12 [Example 244] | 
1 to 10 | 0.1 to 1 | CCN(C(=O)c1cc2c(cc1F)nc(N)c1c(C)ncn12)C1COc2ccccc21 (stereo not shown) [Example 224] | 
1 to 10 | < 0.1 | Cc1nn(C)cc1N(Cc1cc2ccc(C(F)(F)F)cn2n1)C(=O)c1cc2c(cc1F)nc(N)c1cnc(C)n12 [Example 236] | 
1 to 10 | < 0.1 | Cc1ncc2c(N)nc3cc(F)c(C(=O)N4C(c5cc6ccccn6n5)COC[C@H]4C)cc3n12 (stereo partly shown) [Example 203] | 
 | 0.1 to 1 | Cc1nn(C)cc1N(Cc1cn2cc(C(F)(F)F)ccc2n1)C(=O)c1cc2c(cc1F)nc(N)c1cnn(C)c12 [Example 238] | 
 | < 0.1 | Cn1nccc1N(Cc1cn2cc(C(F)(F)F)ccc2n1)C(=O)c1cc2c(cc1F)nc(N)c1cnn(C)c12 [Example 240] | 

More lines, now with the values behind:

SMILES | IC50 (HCT116 MTAP WT cells) [µM] | IC50 ([1]; HCT116-MTAP null) [µM] | IC50 [1] [µM]
COCC(C1CC1)N(Cc1nc2cc(Br)ccc2s1)C(=O)c1ccc2nc(N)c(C)cc2c1 (stereo not shown) [Example 151] | 1 to 10 | 0.1 to 1 | 
COCC(C1CC1)N(Cc1nc2ccccc2s1)C(=O)c1ccc2nc(N)c(C)cc2c1 (stereo not shown) [Example 146] | 1 to 10 |  | 0.1 to 1
CC(c1ncccn1)N(Cc1cc2ccccn2n1)C(=O)c1ccc2nc(N)c3c(c2c1)CCC3 (stereo not shown) [Example 116] | 1 to 10 | < 0.1 | 
Cn1ncc2c(N)nc3cc(F)c(C(=O)N(Cc4cn5ccccc5n4)C4CCCC4O)cc3c21 (stereo not shown) [Example 23] | 1 to 10 | < 0.1 | 
CC1OCc2c1c(N)nc1ccc(C(=O)N(Cc3cn4ccccc4n3)C(C)c3ncccn3)cc21 (stereo not shown) [Example 5] | 1 to 10 | < 0.1 | 
CCN(C(=O)c1ccc2nc(N)c3c(c2c1)COC3C)C(C)c1cn2ccccc2n1 (stereo not shown) [Example 33] | 1 to 10 | 0.1 to 1 | 
CCN(Cc1cn2ccccc2n1)C(=O)c1cc2c(cn1)nc(N)c1cnc(C)n12 [Example 69] | 1 to 10 | 0.1 to 1 | 
Cn1ncc2c(N)nc3cc(F)c(C(=O)N(Cc4cn5ccccc5n4)C4CCCCC4O)cc3c21 (stereo not shown) [Example 24] | 1 to 10 | < 0.1 | 
Cc1cc2cc(C(=O)N(Cc3cn4ccccc4n3)C(C)c3cccc(F)n3)ccc2nc1N (stereo not shown) [Example 32] | 1 to 10 | < 0.1 | 
Cn1cc(N(Cc2cn3cc(C(F)(F)F)ccc3n2)C(=O)c2cc3c4c(c(N)nc3cc2F)COC4)cn1 [Example 80] | 1 to 10 | < 0.1 | 
CC(c1ncccn1)N(Cc1cc2n(n1)CCOC2)C(=O)c1ccc2nc(N)c3c(c2c1)CCC3 (stereo not shown) [Example 156] | 1 to 10 | 0.1 to 1 | 
C[C@H]1COC[C@@H](c2cc3ccccn3n2)N1C(=O)c1cc2c3c(c(N)nc2cc1F)COC3 [Example 124] | 1 to 10 | < 0.1 | 
CCN(C(=O)c1ccc2nc(N)c3c(cnn3C)c2c1)C(C)c1cn2ccccc2n1 (stereo not shown) [Example 15] | 1 to 10 | 0.1 to 1 | 
COCC(C)N(Cc1cn2cc(C(F)(F)F)ccc2n1)C(=O)c1ccc2nc(N)c3c(c2c1)COC3C (stereo not shown) [Example 44] | 1 to 10 | < 0.1 | 
Cc1ncc2c(N)nc3cc(F)c(C(=O)N4C(C)COC[C@@H]4c4cn5ccccc5n4)cc3n12 (stereo partly shown) [Example 176] | 1 to 10 | 0.1 to 1 | 
Cc1nn(C)cc1N(Cc1cn2cc(C(F)(F)F)ccc2n1)C(=O)c1ccc2nc(N)c3c(c2c1)COC3 [Example 89] | 1 to 10 | < 0.1 | 
COC1CC(N(Cc2cn3ccccc3n2)C(=O)c2cc3c(cc2F)nc(N)c2cnn(C)c23)C1 (stereo not shown) [Example 45] | 1 to 10 | < 0.1 | 
CC1OCc2c1c(N)nc1ccc(C(=O)N3C(C)COCC3c3cn4cc(C(F)(F)F)ccc4n3)cc21 (stereo not shown) [Example 67] | 1 to 10 | 0.1 to 1 | 
Cc1cc2cc(C(=O)N(Cc3cc4ccccn4n3)C(C)c3ncccn3)ccc2nc1N (stereo not shown) [Example 120] | 1 to 10 | < 0.1 | 
COCC(C1CC1)N(Cc1nc2ccccc2[nH]1)C(=O)c1ccc2nc(N)c3c(c2c1)CCC3 (stereo not shown) [Example 129] | 1 to 10 | < 0.1 | 
Cn1ncc(N(Cc2cn3cc(C(F)(F)F)ccc3n2)C(=O)c2cc3c4c(c(N)nc3cc2F)COC4)n1 [Example 88] | 1 to 10 | < 0.1 | 
Cc1cn2c(n1)c(N)nc1cc(F)c(C(=O)N3C(C)COC[C@@H]3c3cn4ccccc4n3)cc12 (stereo partly shown) [Example 174] | < 0.1 | 0.1 to 1 | 
[2H]C([2H])([2H])N(Cc1cn2cc(C(F)(F)F)ccc2n1)C(=O)c1cc2c(cc1F)nc(N)c1cnc(C)n12 [Example 173] | 1 to 10 | 0.1 to 1 | 
CCn1cc(N(Cc2cn3cc(C(F)(F)F)ccc3n2)C(=O)c2ccc3nc(N)c4c(c3c2)COC4)c(C)n1 [Example 95] | 1 to 10 | < 0.1 | 
Cc1ncc2c(N)nc3cc(F)c(C(=O)N(Cc4cn5cc(C(F)(F)C(F)(F)F)ccc5n4)CC(C)C)cc3n12 [Example 182] | 0.1 to 1 | < 0.1 | 
COCCN(Cc1cn2cc(C(F)(F)F)ccc2n1)C(=O)c1ccc2nc(N)c3c(c2c1)COC3C (stereo not shown) [Example 41] | 1 to 10 | < 0.1 | 
Cc1nn(C)cc1N(Cc1nc2ccc(C(F)(F)F)cn2c1F)C(=O)c1ccc2nc(N)c3c(c2c1)COC3 [Example 93] | 1 to 10 | < 0.1 | 
CC1OCc2c1c(N)nc1ccc(C(=O)N(Cc3nc4ccc(C(F)(F)F)cn4c3F)c3cnn(C)c3)cc21 (stereo not shown) [Example 71] | 1 to 10 | < 0.1 | 
Cn1cc(N(Cc2cn3cc(C(F)(F)F)ccc3n2)C(=O)c2ccc3nc(N)c4c(c3c2)COC4)cn1 [Example 68] | 1 to 10 | < 0.1 | 
CCN(Cc1cn2ccccc2n1)C(=O)c1ccc2nc(N)c3c(c2c1)COC3 [Example 6] | 1 to 10 | < 0.1 | 

Source: patent publication US20240376126A1, “PRMT5 INHIBITOR AND THE USE THEREOF” (CYTOSINLAB THERAPEUTICS CO., LTD., priority 2022, published 2024)
